# Test results reported in patent US20090123389A1, “Methods for modulating Th17 cell development in the treatment and prevention of cellulite” (priority 2007, published 2009).
# Assays:
# splenocytes = test: In vivo activation of the AAR pathway in splenocytes of treated mice; set-up: species or system C57B/6 mice; conditions: 2.5 μg HF i.p., 6 hours post injection
# Procedure: FIG. 20A is a graph depicting splenocytes from control- and HF-treated mice. C57B/6 mice were injected i.p. with vehicle (DMSO) or 2.5 μg HF. Spleens were harvested 6 hours post injection, red blood cells were lysed and total splenocytes were counted. Data are presented as mean cell counts±SD from 2 mice per group.
# FIG. 20C is a graph depicting eIF2α expression in control- and HF-treated mice. Splenocytes from mice injected with DMSO or HF as above were harvested 6 hours post injection. Red blood cells were lysed and immunoblotting was performed on whole cell extracts for phosphorylated or total eIF2α as indicated.
# FIG. 20D is a graph depicting the results of quantitative real-time PCR (qPCR) experiments performed for AAR-associated gene expression (Asns, Gpt2, eIF4Ebp1) using cDNA generated from splenocytes of mice injected with DMSO or HF as above. Expression of AAR-associated genes were normalized to Hprt levels and data are presented as mean relative expression from duplicate samples±SD.
# [1] = test system: radiation induced fibrosis; conditions: IP, 1-5 μg/mouse; cited from earlier work
# STAT3 = test: Kinetics of STAT3 phosphorylation in developing Th17 cells; assay type: cell-based, mouse; conditions: TGFβ plus IL-6
# Procedure: FIG. 11A is a series of graphs depicting representative histograms displaying the kinetics of STAT3 phosphorylation in developing Th17 cells treated with or without HF. Resting naïve T cells (shaded peak), T cells activated in the presence of TGFβ plus IL-6 (TGFβ/IL-6) treated with 10 nM MAZ1310, TGFβ/IL-6-activated T cells treated with 5 nM HF, TGFβ/IL-6-activated T cells treated with 10 nM HF. T cells were fixed at the indicated times and intracellular phospho-STAT3 staining was performed.
# Whole cell lysates were generated at the indicated times following activation, and western blotting was performed using the indicated antibodies.
# FACS analyses and sorting: All cell surface staining was performed in FACS buffer (PBS/2% FCS/0.1% NaN3) and antibodies were incubated with cells on ice for 20-30 minutes. Cells were washed with FACS buffer and fixed with FACS buffer plus 1% paraformaldehyde prior to data acquisition. For phospho-STAT3 intracellular staining, stimulated T cells cultured with or without TGFβ plus IL-6 for the indicated times were harvested on ice and fixed in PBS plus 2% paraformaldehyde for 10 minutes at 37° C. […] All FACS data was acquired on a FACSCalibur flow cytometer (BD Pharmingen) and analyzed using FlowJo software (Treestar, Inc., Ashland, Oreg.). […]
smiles,measurement,setting,value
"O=C(CC1NCCCC1O)Cn1cnc2cc(Br)c(Cl)cc2c1=O (racemic) [HF, 7-bromo-6-chloro-3-[3-(3-hydroxy-2-piperidinyl)-2-oxopropyl]-4(3H)-quinazolinone]",eIF2α phosphorylation and AAR-associated gene expression in splenocytes of treated mice,splenocytes,rapidly activates
same,radiation induced fibrosis,[1],prevented radiation induced fibrosis
same,toxic effect in mice,[1],without evident toxic effect
same,STAT3 activation during the first 6 hours of Th17 differentiation,STAT3; 5 or 10 nM HF,did not interfere
same,maintenance of STAT3 phosphorylation,STAT3; beginning around 12 hours-post activation,decreased the maintenance of STAT3 phosphorylation
